pIC50, pKd: −log10 of the molar value. Like-named read-outs stand apart in the source and are kept apart here. Where only a bound is given, the exact number is not on record here.

One series concerns Gli1. The series can be described thus: Primary keratinocyte cell culture, reduction in Gli mRNA. It is filed as cell-based. Conditions: primary human keratinocytes. The procedure:
To study the potency of the compounds of the invention in cells, select compounds of the invention were conducted with keratinocytes and the reduction in Gli mRNA was measured. Culturing of primary human keratinocytes was previously described (Nguyen, B. C., et al., Genes & Dev. 20:1028-1042 (2006)). The full thickness skin model, EpiDermFT System (MatTek, Ashland), consisted of normal, human-derived epidermal keratinocytes and normal, human-derived dermal fibroblasts which have been cultured to form a multilayered, highly differentiated model of the human dermis and epidermis. […] Gene expression is compared by quantifying mRNA levels by real time RT-PCR. For this, total RNA preparations […] are used in a reverse transcriptase reaction with a mix of oligonucleotide dT and random hexamer primers, followed by real time PCR with gene-specific primers (Gli1: Qiagen Quantitect PrimerAssay QT00060501; Gli2: Qiagen Quantitect PrimerAssay QT00018648), using an […] real time detection system (Bio-Rad) according to the manufacturer's recommendation, with SYBR Green (Bio-Rad) for detection.

For a further series, the target named is T1, ShhN protein (Homo sapiens, UniProt Q15465).
T1 construct: auto-cleavage of full length Shh into an active 20 kD N-terminal fragment (ShhN); purchased R&D Systems
The series can be described thus: Surface Plasmon Resonance (SPR) protein binding assay on immobilized ShhN. The procedure:
Biacore™ T100 (GE Healthcare, Uppsala, Sweden) was used to perform the experiments described herein. Sensor surface preparation and interaction analyses experiments were performed at 25° C.
Control surfaces were prepared similarly without protein derivatization and were utilized as a reference surfaces for compound binding experiments.
Zero concentration blank buffer cycles were included as negative control samples.
Data analysis was carried out using Biacore T100 evaluation software v1.1.1. […] Solvent correction was then applied as described previously.

For another series, the system named is C3H10T1/2. The series can be described thus: Induction of osteogenic differentiation (modulation of osteoblast differentiation). Conditions: Mus musculus, C3H 10T1/2, read-out: IC50 (nM) C3H10T1/2.
For series [1] the following is noted: rcm bond, toluene.
The mark [2] stands for this setting: SPR, Biacore T100, ShhN immobilized on CM4 chip, 25° C., compound 0.78 μM-25 μM, read-out: KD.

T1 sequence (Q15465 24-197 limits assumed, species assumed): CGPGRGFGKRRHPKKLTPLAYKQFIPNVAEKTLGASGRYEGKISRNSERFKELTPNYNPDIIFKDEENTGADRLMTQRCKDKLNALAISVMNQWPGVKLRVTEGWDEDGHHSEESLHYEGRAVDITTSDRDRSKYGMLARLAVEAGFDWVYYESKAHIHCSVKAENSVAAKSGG
Excerpt for C3H10T1/2: Using assays previously described in Dwyer et al., J. Biol. Chem. 282, (2007), 8959-68 and Nakamura et al., Biochm. […] Res. Comm., 237 (1997) 465-9, select compounds of the invention were screened for their ability to modulate osteoblast differentiation.

In turn, `O=C(CCc1ccc(Cl)cc1)N[C@@H]1C/C=C/CCC(=O)O[C@H](c2ccccc2)CNC1=O` [CA] gave a pIC50 in the series on Gli1 of less than 4.00.
`CCN(CC)CCCNC(=O)C[C@@H]1C/C=C/CCC(=O)O[C@H](c2ccccc2)CNC1=O` [EG]: in the series with Gli1, the pIC50 was 4.00 to 6.00. The pKd at ShhN protein (setting [2]) is less than 4.00.
The compound `CCOCCNC(=O)C[C@@H]1C/C=C/CCC(=O)O[C@H](c2ccccc2)CNC1=O` [EH] had a pIC50 with Gli1 of 4.00 to 6.00. The pKd at ShhN protein (setting [2]) was less than 4.00.
As for `CCCCN1CCC(CNC(=O)C[C@@H]2C/C=C/CCC(=O)O[C@H](c3ccccc3)CNC2=O)CC1` [EI], in the series with Gli1, the pIC50 is 4.00 to 6.00. In addition, the pKd on ShhN protein (setting [2]) is less than 4.00.
For `O=C(C[C@@H]1C/C=C/CCC(=O)O[C@H](c2ccccc2)CNC1=O)NC1CCCc2ccccc21` (stereo partly drawn) [ER], in that order: 6.00 to 7.00 and 4.00 to 6.00.
In the series on Gli1, `O=C(C[C@@H]1C[C@@H]2O[C@H]2CCC(=O)O[C@H](c2ccccc2)CNC1=O)NCc1ccc(Cl)cc1` [Example BY, N-(4-chlorobenzyl)-2-((1S,6R,10S,12S)-4,9-dioxo-6-phenyl-5,13-dioxa-8-azabicyclo[10.1.0]tridecan-10-yl)acetamide] showed a negative logarithm of the IC50 (pIC50) greater than 7.00. Also, the pKd on ShhN protein (setting [2]) is 6.00 to 7.00.
Turning to `O=C(C[C@@H]1C[C@H](O)[C@@H](O)CCC(=O)O[C@H](c2ccccc2)CNC1=O)NCc1ccc(Cl)cc1` [Example BZ, N-(4-chlorobenzyl)-2-((2R,6S,8S,9S)-8,9-dihydroxy-5,12-dioxo-2-phenyl-1-oxa-4-azacyclododecan-6-yl)acetamide], the pIC50 in the series with Gli1 is 6.00 to 7.00. Moreover, the pKd at ShhN protein (setting [2]) was 4.00 to 6.00.
As for `O=C1CC/C=C/CCC(=O)O[C@H](c2ccccc2)CN1` [Example CB, (R,E)-2-phenyl-1-oxa-4-azacyclododec-8-ene-5,12-dione], in the series on Gli1, the pIC50 is 6.00 to 7.00. Further, on ShhN protein (setting [2]), the negative-log Kd (pKd) was less than 4.00.
As for `O=C(C[C@@H]1C[C@@H]2O[C@H]2CCC(=O)N[C@H](c2ccccc2)COC1=O)NCc1ccc(Cl)cc1` [Example CD, N-(4-chlorobenzyl)-2-((1S,3S,7R,12S)-4,9-dioxo-7-phenyl-5,13-dioxa-8-azabicyclo[10.1.0]tridecan-3-yl)acetamide], the pIC50 with Gli1 is 4.00 to 6.00. Moreover, the pKd at ShhN protein (setting [2]) is 4.00 to 6.00.
For the compound `O=C(C[C@@H]1C/C=C/CCC(=O)N[C@H](c2ccc(F)cc2)COC1=O)NCc1ccc(Cl)cc1` [Example CS, N-(4-chlorobenzyl)-2-((3R,11S,E)-3-(4-fluorophenyl)-5,12-dioxo-1-oxa-4-azacyclododec-8-en-11-yl)acetamide], the IC50 in the series on C3H10T1/2 was less than 100 nM. In addition, the pKd on ShhN protein (setting [2]) was 6.00 to 7.00.
For `O=C(C[C@@H]1C/C=C/CCC(=O)N[C@H](c2ccc(Cl)cc2)COC1=O)NCc1ccc(Cl)cc1` [Example CX, N-(4-chlorobenzyl)-2-((3R,11S,E)-3-(4-chlorophenyl)-5,12-dioxo-1-oxa-4-azacyclododec-8-en-11-yl)acetamide], the IC50 with C3H10T1/2 lay in the range of 100 to 1000 nM. Moreover, the pKd on ShhN protein (setting [2]) is greater than 7.00.
Turning to `C[C@@H]1C/C=C/C[C@H](C)C(=O)N[C@H](c2ccccc2)COC1=O` [Example D, (3R,6S,11R,E)-6,11-dimethyl-3-phenyl-1-oxa-4-azacyclododec-8-ene-5,12-dione], the IC50 with C3H10T1/2 was 100 to 1000 nM. Moreover, at ShhN protein (setting [2]), the pKd is greater than 7.00. The compound further registered a ring closure, yield of all isomers in series [1] (from C=CC[C@@H](C)C(=O)OC[C@H](NC(=O)[C@@H](C)CC=C)c1ccccc1, Grubbs II, 20.0 mM, 25.0 °C, 12.0 h) of 78%.
For `C[C@H]1CCCC[C@@H](CC(=O)NCc2ccc(Cl)cc2)C(=O)NC[C@@H](c2ccccc2)OC1=O` [Example DB, N-(4-chlorobenzyl)-2-((2R,6S,11S)-11-methyl-5,12-dioxo-2-phenyl-1-oxa-4-azacyclododecan-6-yl)acetamide], the IC50 in the series on C3H10T1/2 lay within 100 to 1000 nM. Also, on ShhN protein (setting [2]), the pKd was greater than 7.00.
For `C[C@H]1[C@@H](c2ccccc2)OC(=O)CCCCC[C@@H](CC(=O)NCc2ccc(Cl)cc2)C(=O)N1C` [Example DC, N-(4-chlorobenzyl)-2-((2R,3S,6S)-3,4-dimethyl-5,12-dioxo-2-phenyl-1-oxa-4-azacyclododecan-6-yl)acetamide], the IC50 with C3H10T1/2 fell in the range of 100 to 1000 nM. Moreover, the negative logarithm of the Kd (pKd) at ShhN protein (setting [2]) is 6.00 to 7.00.
Consider `O=C(C[C@@H]1C/C=C/CCC(=O)N[C@H](c2ccccc2)COC1=O)NCc1ccc(Cl)nc1` [Example DD, N-((6-chloropyridin-3-yl)methyl)-2-((3R,11S,E)-5,12-dioxo-3-phenyl-1-oxa-4-azacyclododec-8-en-11-yl)acetamide], for which the IC50 with C3H10T1/2 is 100 to 1000 nM. Further, the negative-log Kd (pKd) at ShhN protein (setting [2]) is greater than 7.00.
Regarding `CC(C)N[C@H]1C/C=C/C[C@@H](CC(=O)NCc2ccc(Cl)cc2)C(=O)NC[C@@H](c2ccccc2)OC1=O` [Example DE, N-(4-chlorobenzyl)-2-((2R,6S,11S,E)-11-(isopropylamino)-5,12-dioxo-2-phenyl-1-oxa-4-azacyclododec-8-en-6-yl)acetamide], in the series on C3H10T1/2, the IC50 was 100 to 1000 nM. For the same compound, the pKd at ShhN protein (setting [2]) is 6.00 to 7.00.
As to `C[C@H]1C/C=C/C[C@@H](CC(=O)NCc2ccc(Cl)cc2)C(=O)NC[C@@H](c2ccccc2)OC1=O` [Example DF, N-(4-chlorobenzyl)-2-((2R,6S,11S,E)-11-methyl-5,12-dioxo-2-phenyl-1-oxa-4-azacyclododec-8-en-6-yl)acetamide], the IC50 in the series with C3H10T1/2 was in the range of 100 to 1000 nM. The pKd at ShhN protein (setting [2]) is 6.00 to 7.00.
For `C[C@H]1C/C=C/C[C@@H](CC(=O)NCc2ccc(Cl)cc2)C(=O)OC[C@@H](c2ccccc2)NC1=O` [Example DI, N-(4-chlorobenzyl)-2-((3R,6S,11S,E)-6-methyl-5,12-dioxo-3-phenyl-1-oxa-4-azacyclododec-8-en-11-yl)acetamide], in that order: 1000 to 100000 nM and 6.00 to 7.00.
As for `CCN(CC)C(=O)C[C@@H]1C/C=C/CCC(=O)O[C@H](c2ccccc2)CNC1=O` [Example DO, 2-((2R,6S,E)-5,12-dioxo-2-phenyl-1-oxa-4-azacyclododec-8-en-6-yl)-N,N-diethylacetamide], the IC50 in the series with C3H10T1/2 was 1000 to 100000 nM. The negative logarithm of the Kd (pKd) on ShhN protein (setting [2]) is greater than 7.00.
With `O=C(C[C@@H]1C/C=C/CCC(=O)O[C@H](c2ccccc2)CNC1=O)NCc1ccc([N+](=O)[O-])cc1` [Example DQ, 2-((2R,6S,E)-5,12-dioxo-2-phenyl-1-oxa-4-azacyclododec-8-en-6-yl)-N-(4-nitrobenzyl)acetamide], in the series on C3H10T1/2, the IC50 is greater than 100000 nM. Moreover, the pKd on ShhN protein was 4.00 to 6.00.
`O=C(C[C@@H]1C/C=C/CCC(=O)O[C@H](c2ccccc2)CNC1=O)NCC1CCOCC1` [Example EF, 2-((2R,6S,E)-5,12-dioxo-2-phenyl-1-oxa-4-azacyclododec-8-en-6-yl)-N-((tetrahydro-2H-pyran-4-yl)methyl)acetamide] gave a pIC50 in the series with Gli1 of 4.00 to 6.00. For the same compound, the negative-log Kd (pKd) at ShhN protein (setting [2]) is 4.00 to 6.00.
Compound `O=C1CC/C=C/C[C@@H](CC(=O)N2CCN(c3ccccc3)CC2)C(=O)NC[C@@H](c2ccccc2)O1` [Example ES, (2R,6S,E)-6-(2-oxo-2-(4-phenylpiperazin-1-yl)ethyl)-2-phenyl-1-oxa-4-azacyclododec-8-ene-5,12-dione] showed a negative logarithm of the IC50 (pIC50) in the series on Gli1 of 6.00 to 7.00. Moreover, the pKd on ShhN protein (setting [2]) was 6.00 to 7.00.
`O=C(C[C@@H]1C[C@H](O)[C@@H](O)CCC(=O)OC[C@@H]2CCCN2C1=O)NCc1ccc(Cl)cc1` [Example G, N-(4-chlorobenzyl)-2-((6S,7S,9S,14aS)-6,7-dihydroxy-3,10-dioxododecahydro-1H-pyrrolo[2,1-c][1,4]oxaazacyclododecin-9-yl)acetamide]: the IC50 in the series on C3H10T1/2 is 1000 to 100000 nM. For the same compound, the pKd on ShhN protein (setting [2]) was 6.00 to 7.00.
Regarding `O=C1CC/C=C/C[C@@H](O)C(=O)OC[C@@H](c2ccccc2)N1` [Example H, (3R,11R,E)-11-hydroxy-3-phenyl-1-oxa-4-azacyclododec-8-ene-5,12-dione], in the series on C3H10T1/2, the IC50 was in the range of 1000 to 100000 nM. Besides, the negative-log Kd (pKd) at ShhN protein (setting [2]) is greater than 7.00.
For `C[C@@H]1CCCCCC(=O)N[C@H](c2ccccc2)COC1=O` [Example J, (3R,11R)-11-methyl-3-phenyl-1-oxa-4-azacyclododecane-5,12-dione], in that order: 1000 to 100000 nM and greater than 7.00.
For `C[C@@H]1C/C=C/CC(F)(F)C(=O)N[C@H](c2ccccc2)COC1=O` [Example K, (3R,11R,E)-6,6-difluoro-11-methyl-3-phenyl-1-oxa-4-azacyclododec-8-ene-5,12-dione], the IC50 in the series on C3H10T1/2 was greater than 100000 nM. The pKd on ShhN protein (setting [2]) was 6.00 to 7.00. This compound also gave a ring closure, yield of all isomers in series [1] (from C=CC[C@@H](C)C(=O)OC[C@H](NC(=O)C(F)(F)CC=C)c1ccccc1) of 84%.
Consider `C[C@@H]1C/C=C/C[C@@H](N)C(=O)N[C@H](c2ccccc2)COC1=O` [Example M, (3R,6R,11R,E)-6-amino-11-methyl-3-phenyl-1-oxa-4-azacyclododec-8-ene-5,12-dione], for which the IC50 with C3H10T1/2 is greater than 100000 nM. Besides, the negative-log Kd (pKd) at ShhN protein (setting [2]) is 6.00 to 7.00.
As for `CC(=O)N[C@@H]1C/C=C/C[C@@H](C)C(=O)OC[C@@H](c2ccccc2)NC1=O` [Example N, N-((3R,6R,11R,E)-11-methyl-5,12-dioxo-3-phenyl-1-oxa-4-azacyclododec-8-en-6-yl)acetamide], in the series with C3H10T1/2, the IC50 is greater than 100000 nM. In addition, the pKd at ShhN protein (setting [2]) is 6.00 to 7.00.

The values above are taken from patent US20140094462A1, “SONIC HEDGEHOG MODULATORS” (priority 2009, published 2014).
